In patent publication US20130072459A1, “PHARMACEUTICAL COMPOSITION FOR THE PREVENTION OR THE TREATMENT OF NON-ALCOHOLIC FATTY LIVER DISEASE AND THE METHOD FOR PREVENTION OR TREATMENT OF NON-ALCOHOLIC FATTY LIVER DISEASE USING THE SAME” (priority 2010, published 2013):

Columns and labels:
HepG2 cells = assay: Free fatty acid-induced intracellular fat accumulation, Nile Red staining; assay type: cell-based, human; conditions: for free fatty acid-induced fat accumulation in hepatocytes, result in words: FIG. 10; for inhibition at 1 µM: Homo sapiens, HepG2, 0.5 mM free fatty acid, 24 hours, read-out: inhibitory effects on free fatty acid-induced fat accumulation
Experimental: By a combined treatment of free fatty acid and a drug, inhibitory effects of individual drugs on intracellular fat accumulation were quantified using a triglyceride staining method. The human hepatoma cell line, HepG2 cells were cultured in a minimum essential medium (MEM) containing 10(v/v) % fetal bovine serum for 48 hours. […] For the negative control group, a MEM containing 1(v/v) % bovine serum albumin was treated with 0.1(v/v) % dimethyl sulfoxide with no addition of free fatty acid. After the culture was complete, the medium was removed and the cells were washed with a phosphate buffer. […] After the staining was complete, the supernatant was discarded and replaced with a phosphate buffer, followed by measurement of fluorescence intensities under conditions of a 488 nm excitation wavelength and a 550 nm emission wavelength. Then, in order to correct a deviation according to the cell count, a phosphate buffer containing 10 μM resazurin (Sigma) dissolved therein was added to the same well. Thereafter, before and after the reaction at 37° C. for 1 hour under light-shielded conditions, fluorescence intensities were measured using a fluorometer under conditions of a 535 nm excitation wavelength and a 580 nm emission wavelength, whereby an increase in fluorescence intensity due to resorufin reduced and formed by the intracellular mitochondrial activity was measured. Using the value of a fluorescence intensity of Nile Red corrected in terms of an increase in fluorescence intensity due to the reduction of resazurin, the experimental results were expressed as a percentage for the fat accumulation increased by a treatment with free fatty acid, as compared to the negative control group.

TGF-β1 = TGF-β1 mRNA expression in liver, CCl4-induced acute hepatic damage mouse model; assay type: in vivo, C57BL/6 mice; conditions: for TGF-β1 expression inhibition rate (% CCl4 control group) / TGF-β1 expression (normalized by actin): 3 days; for TGF-β1 expression (normalized by actin): CCl4 0.1 ml/kg i.p.; for maximum decrement in TGF-β1 mRNA expression of the liver relative to the CCl4 control group: maximum over the doses tested; for expression of TGF-β1 mRNA of the liver, result in words: vs CCl4 group
Experimental: In order to investigate inhibitory effects of compounds of the present invention on expression of TGF-β1 which is known to play a crucial role in a fibrosis process of hepatocytes in a CCl4-induced acute hepatic damage mouse model, the following experiment was carried out. 7-week old male C57BL/6 mice were stabilized and divided into 9 groups (n=7) according to the body weight, followed by intraperitoneal administration of CCl4 (0.1 ml/kg). The normal control group was administered an olive oil. The control group was orally administered a vehicle solution (0.5% MC) once a day at a dose of 10 ml/kg, at intervals of 24 hours for 3 days. The remaining groups were orally administered once a day tartrate of Compound 1 at doses of 30, 100 and 300 mg/kg, sitagliptin phosphate (prepared according to the method described in WO2004/085378 or WO2005/003135) at doses of 100 and 300 mg/kg, and vildagliptin (Trademax, China) at doses of 100 and 300 mg/kg, respectively, according to the designated groups. 1 hour after the final oral administration, animals were dissected and the excised liver was subjected to evaluation of TGF-β1 mRNA expression. The liver tissue stored in liquid nitrogen was homogenized in a TRIZOL solution and then the total RNAs were extracted. The isolated RNAs were diluted to a concentration of 1 μg/μL in 0.1(v/v) % DEPC (diethyl pyrocarbonate), and then the RNA mixture [2 μg/μL each RNA+2 μL of 0.5 μg/μL oligo d(T)15+up to 15 μL of 0.1% DEPC water] was incubated using a PCR apparatus at 72° C. for 5 minutes, followed by quenching on ice. The mixture [1 μL of PCR nucleotide mix+5 μL of 5×MMLV RT bf.(Promega, M531A)+1 μL of […] M-MLV reverse] was prepared, and then subjected to elongation at 42° C. for 60 minutes, denaturation at 95° C. for 5 minutes and quenching at 8° C. to synthesize cDNAs which were stored at −20° C. until subsequent use. In order to carry out RT-PCR, the mixture [1 μL of 20 pmol each Primer+9.5 μL of Nuclease-free water] was prepared and then 2 μL of each cDNA was placed in sterile PCR tubes to which 12.5 μL of remix Taq™ (RR003A, TaKaRa) was then added, followed by mixing. PCR was carried out under the following conditions (Table 4), using Thermal Cycler (PTC-200, MJ Research). PCT products were electrophoresed and analyzed using an Image Analyzer (Vilber Lourmat). Using β-actin expression, the expression of a target gene TGF-β1 was subjected to normalization (FIG. 11).

ob/ob mice = assay: Plasma alanine aminotransferase in obesity animal model ob/ob mice; assay type: in vivo; conditions: 4 weeks; for plasma alanine aminotransferase, result in words: ob/ob mice
Experimental: 5-week old male C57BL/6 mice (normal mouse group) and ob/ob mice (obesity mouse group) were stabilized and then divided into 6 groups according to the body weight and blood glucose level, followed by feeding with a standard diet and a drug-mixed diet. […] Therefore, in order to supply 10, 100 and 300 mg/kg which are daily target doses of tartrate of Compound 1, diets were formulated by mixing a standard diet with 0.01% by weight, 0.1% by weight and 0.3% by weight of tartrate of Compound 1 and 0.3% by weight of sitagliptin phosphate, respectively. 4 weeks after a supply of diets, animals were dissected and sera were separated. Plasma alanine aminotransferase levels were measured using a blood analyzer (Table 6).

[1] = standard diet with 0.3% drug (target 300 mg/kg/day)
[2] = standard diet with 0.01% drug (target 10 mg/kg/day)
[3] = standard diet with 0.1% drug (target 100 mg/kg/day)

SMILES | free fatty acid-induced fat accumulation in hepatocytes, result in words (HepG2 cells) | inhibition at 1 µM (HepG2 cells) [%] | TGF-β1 expression inhibition rate (% CCl4 control group) (TGF-β1; 100 mg/kg oral once a day) [%] | TGF-β1 expression (normalized by actin) (TGF-β1; 100 mg/kg oral once a day) | TGF-β1 expression inhibition rate (% CCl4 control group) (TGF-β1; 300 mg/kg oral once a day) [%] | TGF-β1 expression (normalized by actin) (TGF-β1; 300 mg/kg oral once a day) | maximum decrement in TGF-β1 mRNA expression of the liver relative to the CCl4 control group (TGF-β1) [%] | expression of TGF-β1 mRNA of the liver, result in words (TGF-β1) | plasma alanine aminotransferase, result in words (ob/ob mice) | ALT increase inhibition (%) relative to ob/ob mouse control group (ob/ob mice; [1]) [%] | ALT increment (%) relative to normal mouse group (ob/ob mice; [1]) [%] | TGF-β1 expression inhibition rate (% CCl4 control group) (TGF-β1; 30 mg/kg oral once a day) [%] | TGF-β1 expression (normalized by actin) (TGF-β1; 30 mg/kg oral once a day) | ALT increase inhibition (%) relative to ob/ob mouse control group (ob/ob mice; [2]) [%] | ALT increment (%) relative to normal mouse group (ob/ob mice; [2]) [%] | ALT increase inhibition (%) relative to ob/ob mouse control group (ob/ob mice; [3]) [%] | ALT increment (%) relative to normal mouse group (ob/ob mice; [3]) [%]
N[C@@H](CC(=O)N1CCn2c(nnc2C(F)(F)F)C1)Cc1cc(F)c(F)cc1F [sitagliptin phosphate, sitagliptin] | dose-dependent inhibition | 28.7 ± 3.2 | 41 | 1.13 ± 0.19 | −17 | 1.26 ± 0.13 | 41 | decreased expression | reduction | 15 | 869 | – | – | – | – | – | –
CC(C)(C)OC[C@@H]1C(=O)NCCN1C(=O)C[C@H](N)Cc1cc(F)c(F)cc1F [tartrate of Compound 1, (R)-4-[(R)-3-amino-4-(2,4,5-trifluorophenyl)-butanoyl]-3-(t-butoxymethyl)piperazin-2-one] | dose-dependent inhibition | 28.7 ± 3.2 | 128 | 0.93 ± 0.10 | 100 | 1.00 ± 0.13 | 135 | normalization | reduction | 27 | 757 | 135 | 0.92 ± 0.13 | 43 | 610 | 39 | 653
